According to patent publication US20240182453A1, “NOVEL SUBSTITUTED PYRAZINE-CARBOXAMIDE DERIVATIVES” (Boehringer Ingelheim International GmbH, priority 2022, published 2024):

Molecular target: human metabotropic Glutamate 4 receptor (mGluR4) (Homo sapiens (Human), UniProt Q14833)
Assay: Assay A: in vitro testing of mGluR4 potency (glutamate-induced cAMP lowering, HTRF cAMP)
Format: cell-based
Details: HEK293 cells overexpressing human mGluR4; 10 uM L-glutamic acid, 1 uM forskolin; compounds of the present invention
Protocol: A. In Vitro Testing of mGluR4 Potency
The in vitro activity of the compounds according to the invention may be investigated as follows:
The HEK293 cell overexpressing the human metabotropic Glutamate 4 receptor are thawed at 37° C. and immediately diluted with cell culture medium. After centrifugation, the cell pellet is re-suspended in medium and then distributed from a stirred spinner flask into the wells of the assay plate. The plates are incubated for one hour at room temperature before they are incubated for 24 hours at 37° C./5% CO2. After washing the cells in the plate three times with 80 uL HBSS/HEPES buffer (10 uL buffer remained in the wells after washing), 5 uL per well of compounds diluted in HBSS/HEPES buffer containing 0.2% BSA (final concentration: 0.1%) and 1 mM IBMX (final concentration: 0.5 mM) are added to the wells of the assay plate. Thereafter 5 uL per well of L-Glutamic acid (final concentration: 10 uM), forskolin (final concentration: 1 uM) and 1 mM IBMX (final concentration: 0.5 mM) dissolved in HBSS/HEPES buffer containing 0.2% BSA (final concentration: 0.1%) are added to the assay plate (final DMSO concentration: 1%). Several wells of the assay plate are used either for the positive and the negative controls or for the cAMP standard curve. The assay plate is incubated for 30 minutes at room temperature. Then 5 ul per well of Anti-cAMP-Antibody-d2 solution and 5 ul per well of cAMP-Europium Cryptate dilution are added to all wells of the plate and the plate is incubated another 60 minutes light protected at room temperature. The emission at 615 nm and 665 nm (Excitation wavelength: 320 nm) are measured on the EnVision™ reader (Perkin Elmer). The ratio between the emission at 665 nm and 615 is calculated by the reader. The whole assay is performed in the dark or under green light.
The cAMP standard is prepared by diluting the cAMP stock solution with HBSS/Hepes buffer: 5 μl/well of the cAMP dilutions (in HBSS/Hepes buffer containing 1 mM IBMX and 0.2% BSA—final concentration: 0.5 mM IBMX and 0.1% BSA) are added to 10 ul/well HBSS/Hepes buffer plus 5 ul/well 4% DMSO in HBSS/Hepes containing 0.2% BSA (final DMSO concentration: 1%—like in the wells containing compounds) in the wells of the assay plate. The final cAMP concentrations in the assay plate are: 0, 0.17, 0.69, 2.78, 11.1, 44.5, 178, and 712 nM (two wells/cAMP concentration).
Each assay microtiter plate contained also wells with vehicle controls instead of compound as controls for L-Glutamic acid induced signal (negative control; 100% CTL; 10 uM L-Glutamic acid+1 uM forskolin+0.5 mM IBMX+1% DMSO) and wells with vehicle controls without L-Glutamic acid as controls for non-specific changes in signal (positive control; 0% CTL; 0 uM L-Glutamic acid+1 uM forskolin+0.5 mM IBMX+1% DMSO).
The analysis of the data is performed by the calculation the ratio between the emission at 665 nm and the emission at 615 nm (Em665/Em615 ratio). Thereafter the signals of the compounds are normalized using the positive and negative controls by the following formula:
PoC=100×((Signal Sample−Positive Control)/(Negative Control−Positive Control))

Chain of human metabotropic Glutamate 4 receptor (mGluR4) (Q14833 33-912): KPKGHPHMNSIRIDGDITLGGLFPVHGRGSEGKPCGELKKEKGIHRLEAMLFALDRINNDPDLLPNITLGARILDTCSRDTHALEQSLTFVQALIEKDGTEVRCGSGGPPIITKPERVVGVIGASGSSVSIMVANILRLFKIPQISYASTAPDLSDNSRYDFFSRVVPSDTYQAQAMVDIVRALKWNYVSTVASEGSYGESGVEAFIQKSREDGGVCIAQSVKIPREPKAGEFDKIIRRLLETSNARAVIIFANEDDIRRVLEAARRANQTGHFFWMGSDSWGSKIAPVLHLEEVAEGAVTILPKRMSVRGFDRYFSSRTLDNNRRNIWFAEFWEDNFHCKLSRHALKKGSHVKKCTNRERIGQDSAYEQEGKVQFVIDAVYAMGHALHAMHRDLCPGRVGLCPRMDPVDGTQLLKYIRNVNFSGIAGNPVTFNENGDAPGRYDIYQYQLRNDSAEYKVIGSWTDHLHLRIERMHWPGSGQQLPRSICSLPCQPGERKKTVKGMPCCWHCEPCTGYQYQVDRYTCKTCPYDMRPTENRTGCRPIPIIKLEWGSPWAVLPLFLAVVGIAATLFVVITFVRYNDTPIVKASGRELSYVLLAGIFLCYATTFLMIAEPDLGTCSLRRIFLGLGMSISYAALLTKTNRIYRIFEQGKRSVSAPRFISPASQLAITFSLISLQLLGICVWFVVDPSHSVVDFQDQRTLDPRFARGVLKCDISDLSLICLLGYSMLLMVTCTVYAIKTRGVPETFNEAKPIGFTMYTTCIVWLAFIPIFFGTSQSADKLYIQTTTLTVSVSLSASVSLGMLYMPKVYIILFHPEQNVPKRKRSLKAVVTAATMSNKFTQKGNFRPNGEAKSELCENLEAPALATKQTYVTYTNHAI

IC50 [nM]	SMILES
3	Cc1cnc(C(=O)N[C@H](c2nc3cc(C)c(F)cc3n2CC(F)F)C2CC2)cn1 [Example 15, N-[(S)-cyclopropyl[1-(2,2-difluoroethyl)-6-fluoro-5-methyl-1H-1,3-benzodiazol-2-yl]methyl]-5-methylpyrazine-2-carboxamide]
8	Cc1cnc(C(=O)N[C@H](c2nc3cc(C(F)(F)F)ccc3n2C)[C@@H](C)OC(F)F)cn1 [Example 61, N-[(1R,2R)-2-(difluoromethoxy)-1-[1-methyl-5-(trifluoromethyl)-1H-1,3-benzodiazol-2-yl]propyl]-5-methylpyrazine-2-carboxamide]
3	CCn1c([C@@H](NC(=O)c2cnc(C)cn2)C2CC2)nc2cc(C(F)(F)F)ccc21 [Example 36, N-[(S)-cyclopropyl[1-ethyl-5-(trifluoromethyl)-1H-1,3-benzodiazol-2-yl]methyl]-5-methylpyrazine-2-carboxamide]
12	CCn1c([C@@H](NC(=O)c2cnc(C)cn2)[C@H]2CCOC2)nc2cc(OC(F)(F)F)ccc21 (single isomer, unassigned) [Example 70]
9	Cc1cnc(C(=O)N[C@H](c2nc3cc(Cl)ccc3n2C)C2CC2)cn1 [Example 47, N-[(S)-(5-chloro-1-methyl-1H-1,3-benzodiazol-2-yl)(cyclopropyl)methyl]-5-methylpyrazine-2-carboxamide]
18	Cc1cnc(C(=O)N[C@H](c2nc3cc(F)ccc3n2CC(F)F)[C@@H](C)OC(F)F)cn1 [Example 69, N-[(1R,2R)-1-[1-(2,2-difluoroethyl)-5-fluoro-1H-1,3-benzodiazol-2-y1]-2-(difluoromethoxy)propyl]-5-methylpyrazine-2-carboxamide]
6	Cc1cnc(C(=O)N[C@H](c2nc3cc(OC(F)(F)F)ccc3n2C)C2CC2)cn1 [Example 74, N-[(S)-cyclopropyl[1-methyl-5-(trifluoromethoxy)-1H-1,3-benzodiazol-2-yl]methyl]-5-methylpyrazine-2-carboxamide]
2	CCn1c([C@@H](NC(=O)c2cnc(C)cn2)C2CC2)nc2cc(OC(F)(F)F)ccc21 [Example 46, N-[(S)-cyclopropyl[1-ethyl-5-(trifluoromethoxy)-1H-1,3-benzodiazol-2-yl]methyl]-5-methylpyrazine-2-carboxamide]
41	Cc1cnc(C(=O)N[C@H](c2nc3ccc(C(F)(F)F)cc3n2CC(F)F)[C@@H]2CCOC2)cn1 [Example 145, N-[(S)-[1-(2,2-difluoroethyl)-6-(trifluoromethyl)-1H-1,3-benzodiazol-2-yl][(3S)-oxolan-3-yl]methyl]-5-methylpyrazine-2-carboxamide]
10	COCCn1c([C@@H](NC(=O)c2cnc(C)cn2)C2CC2)nc2cc(OC(F)F)c(F)cc21 [Example 67, N-[(S)-cyclopropyl[5-(difluoromethoxy)-6-fluoro-1-(2-methoxyethyl)-1H-1,3-benzodiazol-2-yl]methyl]-5-methylpyrazine-2-carboxamide]
18	Cc1cnc(C(=O)N[C@H](c2nc3cc(F)ccc3n2C2CC2)C2CC2)cn1 [Example 73, N-[(S)-cyclopropyl (1-cyclopropyl-5-fluoro-1H-1,3-benzodiazol-2-yl)methyl]-5-methylpyrazine-2-carboxamide]
14	COCCn1c([C@@H](NC(=O)c2cnc(C)cn2)C(C)(C)O)nc2cc(C(F)(F)F)ccc21 [Example 126, N-[(1R)-2-hydroxy-1-[1-(2-methoxyethyl)-5-(trifluoromethyl)-1H-1,3-benzodiazol-2-yl]-2-methylpropyl]-5-methylpyrazine-2-carboxamide]
1	COCCn1c([C@@H](NC(=O)c2cnc(C(F)F)cn2)[C@@H](C)OC)nc2cc(OC(F)(F)F)ccc21 [Example 121, 5-(difluoromethyl)-N-[(1R,2R)-2-methoxy-1-[1-(2-methoxyethyl)-5-(trifluoromethoxy)-1H-1,3-benzodiazol-2-yl]propyl]pyrazine-2-carboxamide]
8	CCn1c([C@@H](NC(=O)c2cnc(C)cn2)C2CC(F)(F)C2)nc2cc(F)ccc21 [Example 127, N-[(S)-(3,3-difluorocyclobutyl)(1-ethyl-5-fluoro-1H-1,3-benzodiazol-2-yl)methyl]-5-methylpyrazine-2-carboxamide]
8	Cc1cnc(C(=O)N[C@H](c2nc3cc(C(F)(F)F)ccc3n2CC(F)F)[C@H]2CCOC2)cn1 [Example 142, N-[(S)-[1-(2,2-difluoroethyl)-5-(trifluoromethyl)-1H-1,3-benzodiazol-2-yl][(3R)-oxolan-3-yl]methyl]-5-methylpyrazine-2-carboxamide]

Further lines, the compound ahead of its results:

SMILES	IC50 [nM]
COCCn1c([C@@H](NC(=O)c2cnc(C)cn2)[C@H]2CCCO2)nc2cc(C(F)(F)F)ccc21 (single isomer, unassigned) [Example 19]	3
CCn1c([C@@H](NC(=O)c2cnc(C)cn2)[C@]2(O)CCCOC2)nc2ccc(C(F)(F)F)cc21 [Example 152, N-[(R)-[1-ethyl-6-(trifluoromethyl)-1H-1,3-benzodiazol-2-yl][(3R)-3-hydroxyoxan-3-yl]methyl]-5-methylpyrazine-2-carboxamide]	14
Cc1cnc(C(=O)N[C@H](c2nc3cc(Br)ccc3n2C)C2CC2)cn1 [Example 34, N-[(S)-(5-bromo-1-methyl-1H-1,3-benzodiazol-2-yl)(cyclopropyl)methyl]-5-methylpyrazine-2-carboxamide]	5
COCCn1c([C@@H](NC(=O)c2cnc(C(F)F)cn2)[C@H]2CCCO2)nc2cc(OC(F)(F)F)ccc21 [Example 53, 5-(difluoromethyl)-N-[(R)-[1-(2-methoxyethyl)-5-(trifluoromethoxy)-1H-1,3-benzodiazol-2-yl][(2R)-oxolaN-2-yl]methyl]pyrazine-2-carboxamide]	6
Cc1cnc(C(=O)N[C@H](c2nc3cc(C(F)(F)F)ccc3n2C2CC2)C2CC2)cn1 [Example 116, N-[(S)-cyclopropyl[1-cyclopropyl-5-(trifluoromethyl)-1H-1,3-benzodiazol-2-yl]methyl]-5-methylpyrazine-2-carboxamide]	13
CCc1c(Br)ccc2c1nc([C@@H](NC(=O)c1cnc(C)cn1)C(C)(C)O)n2C [Example 109, N-[(1R)-1-(5-bromo-4-ethyl-1-methyl-1H-1,3-benzodiazol-2-yl)-2-hydroxy-2-methylpropyl]-5-methylpyrazine-2-carboxamide]	6
COCCn1c([C@@H](NC(=O)c2cnc(C(F)F)cn2)C2CC2)nc2cc(Cl)ccc21 [Example 11, N-[(S)-[5-chloro-1-(2-methoxyethyl)-1H-1,3-benzodiazol-2-yl](cyclopropyl)methyl]-5-(difluoromethyl)pyrazine-2-carboxamide]	3
Cn1c([C@H](CC2CC2)NC(=O)c2cnc(C(F)F)cn2)nc2cc(Cl)ccc21 [Example 106, N-[(1S)-1-(5-chloro-1-methyl-1H-1,3-benzodiazol-2-yl)-2-cyclopropylethyl]-5-(difluoromethyl)pyrazine-2-carboxamide]	11
COCCn1c([C@@H](NC(=O)c2cnc(C)cn2)C2CC2)nc2c(C)c(Br)ccc21 [Example 54, N-[(S)-[5-bromo-1-(2-methoxyethyl)-4-methyl-1H-1,3-benzodiazol-2-yl](cyclopropyl)methyl]-5-methylpyrazine-2-carboxamide]	1
Cc1cnc(C(=O)N[C@H](c2nc3cc(C(F)(F)F)ccc3n2C)[C@H]2CCCO2)cn1 (single isomer, unassigned) [Example 56]	13
COCCn1c(C(NC(=O)c2cnc(C)cn2)C2CCCO2)nc2cc(C(F)(F)F)ccc21 (single isomer, unassigned) [Example 19-1, N-{[1-(2-methoxyethyl)-5-(trifluoromethyl)-1H-1,3-benzodiazol-2-yl](oxolan-2-yl)methyl}-5-methylpyrazine-2-carboxamide]	13
